Measurements as given in patent publication US12440492B2, “Pharmaceutical compositions comprising AKT protein kinase inhibitors” (Genentech, Inc., priority 2016, dated 2025).
Structures can show the parent of a compound that is named as a salt.

Columns and labels:
Assay type in all cases: physicochemical
[1] = Solid state by X-ray powder diffraction; conditions: * indicates absence of crystalline API; monohydrochloride
Excerpt: Bragg's law describes the diffraction of crystalline material with the equation “2d·sin(theta)=n·lambda”, wherein “d” denotes perpendicular distance (in Angstroms) between pairs of adjacent planes in a crystal (“d-spacing”), “theta” denotes the Bragg angle, “lambda” denotes the wavelength and “n” is an integer. When Bragg's law is fulfilled, the reflected beams are in phase and interfere constructively so that Bragg diffraction peaks are observed in the X-ray diffraction pattern. At angles of incidence other than the Bragg angle, reflected beams are out of phase and destructive interference or cancellation occurs. […] The XRPD pattern of an amorphous material is further characterized by one or more amorphous halos.
The term “XRPD” denotes the analytical method of X-Ray Powder Diffraction. The repeatability of the angular values is in the range of 2Theta±0.2°, more particularly in the range of 2Theta±0.1°. The term “approximately” given in combination with an angular value denotes the variance which is in the range of 2Theta±0.2°, particularly in the range of 2Theta±0.1°. The relative XRPD peak intensity is dependent upon many factors such as structure factor, temperature factor, crystallinity, polarization factor, multiplicity, and Lorentz factor. Relative intensities may vary considerably from one measurement to another due to preferred orientation effects. According to USP 941 (US Pharmacopoeia, 37th Edition, General Chapter 941), relative intensities between two samples of the same material may vary considerably due to “preferred orientation” effects. Anisotropic materials adopting preferred orientation will lead to anisotropic distribution of properties such as modulus, strength, ductility, toughness, electrical conductivity, thermal expansion, etc., as described e.g. in Kocks U. F. et al. (Texture and Anisotropy: Preferred Orientations in Polycrystals and Their Effect on Materials Properties, Cambridge University Press, 2000). In XRPD but also Raman spectroscopy, preferred orientations cause a change in the intensity distribution. Preferred orientation effects are particularly pronounced with crystalline APIs of relatively large particle size.

[2] = Particle size distribution (d10, d50, d90) by laser diffraction; conditions: spray dried amorphous ipatasertib monohydrochloride powder
Excerpt: FIG. 6 illustrates particle size distribution of the material of Example 6C (Batch HQ00003) spray dried with two-feed nozzle as obtained by laser diffraction A bimodal particle size distribution is obvious. FIG. 9 illustrates particle size distribution of spray dried material with rotary wheel nozzle, i.e. of the material of batch BS1506SA03 of Example 13 (Table 20) obtained using a Malvern Mastersizer 2000 equipped with Hydro 2000S wet sample dispersion unit (Malvern Instruments Ltd, Malvern/UK). A monomodal particle size distribution is obvious. The terms “d50 value” (sometimes also referred to as “d(0.5)-value”) and “mass-median diameter” (or MMD) can be used interchangeably and denote the average particle size by mass, i.e. the average equivalent diameter of a particle, which is defined as the diameter where 50% (w) of the particles of the ensemble have a larger equivalent spherical diameter, and the other 50% (w) have a smaller equivalent spherical diameter. In analogy, the term “d10-value” denotes the particle diameter wherein 10% (w) of the particles of the ensemble have a smaller equivalent spherical diameter. In analogy, the term “d90-value” denotes the particle diameter wherein 90% (w) of the particles of the ensemble have a smaller equivalent spherical diameter.

[3] = Bulk density, tapped density and Carr index; conditions: spray dried amorphous ipatasertib monohydrochloride powder; monohydrochloride

Row | Solid state / Polymorphy (X-Ray, XRPD) [1] | Particle size d10 [2] | Particle size d50 [2] | Particle size d90 [2] | Bulk density [3] | Tapped density [3] | SMILES
1 | amorphous* | 10 μm | 28 μm | 56 μm | 0.45 gcm^−3 | 0.59 gcm^−3 | CC(C)NC[C@@H](C(=O)N1CCN(c2ncnc3c2[C@H](C)C[C@H]3O)CC1)c1ccc(Cl)cc1 [Composition 140210413, ipatasertib monohydrochloride]
2 | amorph.* | 10 μm | 28 μm | 56 μm | 0.38 gcm^−3 | 0.55 gcm^−3 | CC(C)NC[C@@H](C(=O)N1CCN(c2ncnc3c2[C@H](C)C[C@H]3O)CC1)c1ccc(Cl)cc1 [Composition 141210421, ipatasertib monohydrochloride]
3 | amorphous* | 7.1 μm | 16 μm | 28 μm | 0.29 gcm^−3 | 0.43 gcm^−3 | CC(C)NC[C@@H](C(=O)N1CCN(c2ncnc3c2[C@H](C)C[C@H]3O)CC1)c1ccc(Cl)cc1 [Composition 140110407, ipatasertib monohydrochloride]
4 | amorph.* | 8.5 μm | 21 μm | 43 μm | 0.24 gcm^−3 | 0.37 gcm^−3 | CC(C)NC[C@@H](C(=O)N1CCN(c2ncnc3c2[C@H](C)C[C@H]3O)CC1)c1ccc(Cl)cc1 [Composition 141210426, ipatasertib monohydrochloride]
5 | amorph.* | 9.6 μm | 27 μm | 54 μm | 0.37 gcm^−3 | 0.54 gcm^−3 | CC(C)NC[C@@H](C(=O)N1CCN(c2ncnc3c2[C@H](C)C[C@H]3O)CC1)c1ccc(Cl)cc1 [Composition 141210422, ipatasertib monohydrochloride]
6 | Amorphous* | 8.4 μm | 21 μm | 42 μm | 0.32 gcm^−3 | 0.47 gcm^−3 | CC(C)NC[C@@H](C(=O)N1CCN(c2ncnc3c2[C@H](C)C[C@H]3O)CC1)c1ccc(Cl)cc1 [Composition 130710452, ipatasertib monohydrochloride]
7 | amorphous* | 9.2 μm | 27 μm | 58 μm | 0.37 gcm^−3 | 0.51 gcm^−3 | CC(C)NC[C@@H](C(=O)N1CCN(c2ncnc3c2[C@H](C)C[C@H]3O)CC1)c1ccc(Cl)cc1 [Composition 140110411, ipatasertib monohydrochloride]
8 | amorph.* | 11 μm | 39 μm | 80 μm | 0.39 gcm^−3 | 0.54 gcm^−3 | CC(C)NC[C@@H](C(=O)N1CCN(c2ncnc3c2[C@H](C)C[C@H]3O)CC1)c1ccc(Cl)cc1 [Composition 141210425, ipatasertib monohydrochloride]
9 | Amorphous* | 14 μm | 40 μm | 79 μm | 0.42 gcm^−3 | 0.60 gcm^−3 | CC(C)NC[C@@H](C(=O)N1CCN(c2ncnc3c2[C@H](C)C[C@H]3O)CC1)c1ccc(Cl)cc1 [Composition 130710450, ipatasertib monohydrochloride]
10 | Amorphous* | 17 μm | 45 μm | 88 μm | 0.48 gcm^−3 | 0.61 gcm^−3 | CC(C)NC[C@@H](C(=O)N1CCN(c2ncnc3c2[C@H](C)C[C@H]3O)CC1)c1ccc(Cl)cc1 [Composition 130710451, ipatasertib monohydrochloride]
11 | amorphous* | 10.2 μm | 26 μm | 53 μm | 0.41 gcm^−3 | 0.54 gcm^−3 | CC(C)NC[C@@H](C(=O)N1CCN(c2ncnc3c2[C@H](C)C[C@H]3O)CC1)c1ccc(Cl)cc1 [Composition 140110406, ipatasertib monohydrochloride]
12 | Amorphous* | 12 μm | 36 μm | 72 μm | 0.47 gcm^−3 | 0.61 gcm^−3 | CC(C)NC[C@@H](C(=O)N1CCN(c2ncnc3c2[C@H](C)C[C@H]3O)CC1)c1ccc(Cl)cc1 [Composition 130810454, ipatasertib monohydrochloride]
13 | amorphous* | 12.5 μm | 47 μm | 108 μm | 0.49 gcm^−3 | 0.63 gcm^−3 | CC(C)NC[C@@H](C(=O)N1CCN(c2ncnc3c2[C@H](C)C[C@H]3O)CC1)c1ccc(Cl)cc1 [Composition 140110404, ipatasertib monohydrochloride]
14 | amorphous* | 9.4 μm | 27 μm | 61 μm | 0.37 gcm^−3 | 0.52 gcm^−3 | CC(C)NC[C@@H](C(=O)N1CCN(c2ncnc3c2[C@H](C)C[C@H]3O)CC1)c1ccc(Cl)cc1 [Composition 140110403, ipatasertib monohydrochloride]
15 | amorphous* | 9.3 μm | 26 μm | 57 μm | 0.28 gcm^−3 | 0.40 gcm^−3 | CC(C)NC[C@@H](C(=O)N1CCN(c2ncnc3c2[C@H](C)C[C@H]3O)CC1)c1ccc(Cl)cc1 [Composition 140110405, ipatasertib monohydrochloride]
16 | amorphous* | 9.3 μm | 26 μm | 58 μm | 0.34 gcm^−3 | 0.50 gcm^−3 | CC(C)NC[C@@H](C(=O)N1CCN(c2ncnc3c2[C@H](C)C[C@H]3O)CC1)c1ccc(Cl)cc1 [Composition 140110408, ipatasertib monohydrochloride]
17 | amorph.* | 9.5 μm | 27 μm | 54 μm | 0.37 gcm^−3 | 0.54 gcm^−3 | CC(C)NC[C@@H](C(=O)N1CCN(c2ncnc3c2[C@H](C)C[C@H]3O)CC1)c1ccc(Cl)cc1 [Composition 141210424, ipatasertib monohydrochloride]
18 | amorphous* | 11.4 μm | 31 μm | 64 μm | 0.47 gcm^−3 | 0.61 gcm^−3 | CC(C)NC[C@@H](C(=O)N1CCN(c2ncnc3c2[C@H](C)C[C@H]3O)CC1)c1ccc(Cl)cc1 [Composition 140110401, ipatasertib monohydrochloride]
19 | amorphous* | 13 μm | 46 μm | 94 μm | 0.47 gcm^−3 | 0.60 gcm^−3 | CC(C)NC[C@@H](C(=O)N1CCN(c2ncnc3c2[C@H](C)C[C@H]3O)CC1)c1ccc(Cl)cc1 [Composition 140210412, ipatasertib monohydrochloride]
